# In patent publication US12559506B2, “Indazole based compounds and associated methods of use” (Arvinas Operations, Inc., priority 2021, dated 2026):
# Like-named read-outs stand apart in the source and are kept apart here.
# Assays:
# Format in all cases: cell-based
# G2019S LRRK2 = target: T1, G2019S LRRK2 (Homo sapiens, UniProt Q5S007, G2019S); test: LRRK2 degradation assay, HiBit-tagged G2019S LRRK2 expressed from plasmid in HEK293 cells (Nano-Glo Dual-Luciferase); details: HiBit-tagged G2019S LRRK2 in HEK293 cells, 24 hours
# T1 construct: expressed in transfected cells; host or cells: HEK293 (ATCC CRL-1573), transient transfection, mammalian expression vector with ubiquitin promoter
# Description: (§1) Exemplary Assay for Testing LRRK2 Degradation Driven by Exemplary Hetero-Bifunctional Compounds Designed to Target LRRK2
# (§2) The assay measures the degradation of wildtype and G2019S LRRK2 tagged with a HiBit tag on the C-terminus of the protein that was expressed from a mammalian expression vector, driven by the ubiquitin promoter in HEK293 cells. Each compound dose-response was repeated on two separate days, on three separate plates each day.
# (§3) Plasmid Preparation. Transfection mixes were assembled as follows and incubated for 30 minutes at room temperature. In a 15 mL tube, 5.25 mL Opti-MEM (no additions) was mixed with 17 μL Firefly Luciferase plasmid at 1 μg/μL and 158 μL WT plasmid DNA at 1 μg/μL (175 μg total DNA) were mixed by flicking. In a new 15 mL tube, 5.25 mL OptiMEM was mixed with 17 μL Firefly Luciferase plasmid at 1 μg/μL and 158 μL G2019S plasmid DNA at 1 μg/μL (175 μg total DNA) were mixed by flicking. X-tremeGene HP was mixed thoroughly using a vortex. Next, 175 μL was added to each tube and flicked to mix. Both tubes were left to incubate for 30 minutes at room temperature.
# (§4) While the transfection mixes were incubating, HEK293 cells (acquired from ATCC; ATCC CRL-1573) were harvested with trypsin. Once cells are detached, the cells were resuspended in 12 mL OptiMEM+5% FBS and transferred to a 50 mL tube. The cells were mixed well and counted. Using OptiMEM+5% FBS, the cells were diluted in two 250 mL conical tubes at 0.71×10^6 cells/mL in 70 mL. One tube was labeled “WT” and the other “G2019S”. The WT and G2019S transfection mixes were added dropwise to the corresponding 250 mL tubes. The tubes were mixed first by pipetting then by swirling. The tubes were incubated at room temperature for at least 5 minutes.
# (§5) Each tube was swirled before dispensing and after every three plates. Seventy microliters of cells were dispensed with WT or G2019S DNA to seven plates each. Three plates of each were tested with compound plate one (preparation described below) and three plates of each were tested with compound plate two (preparation described below). The first plate from each set served as a “prime” plate and was not used to test compounds. Each plate was incubated in the hood for 10 minutes before placing in the 37° C. incubator for 24 hours.
# (§6) Preparation of Compound and Assay Plates. Two compound plates were made using 96 well polypropylene plates. Compounds were made up at 10 mM and were diluted to 1 mM in 30 μL. Each dose response curve included a well of DMSO, as a negative control and for normalization, and a well of 0.5 μM of Compound 4 as a positive control. In addition to seven test compounds, each plate also included a dose response of Compound 4. The compound plates were spun down along at 1200 rpm for 2 minutes.
# (§7) The two compound plates were then mixed and 2 μL was diluted in intermediate plates having 248 μL of Opti-Mem in each well. Next, 10 μL diluted compounds from the intermediate plates were added to each test plate (three WT and three G2019S plates per compound plate for a total of 12 assay plates). The plates were incubated for 24 hours at 37° C.
# (§8) All assay plates and all Nano-Glo Dual-Luciferase Reporter Assay System components (except for the DLR substrate) were equilibrated to room temperature. Next, the luciferase buffer was mixed with the lyophilized amber bottle until fully dissolved, and 75 μL of the luciferase mixture was added to each well of each assay plate. The assay plates were incubated for 10 minutes at room temperature with shaking for at least 5 minutes, and then read on a plate reader.
# (§9) Developing Plates and Analyzing Data. One milliliter of DLR substrate and 1 mL LgBiT Protein were added to the Stop and Glo buffer, and 75 μL of the mixture was added to each well of each plate. Optically clear seals were added to each plate and each plate was incubated for 20 minutes with shaking for at least 10 minutes, and then read on a plate reader. […]
# wildtype LRRK2 = target: T2, wildtype LRRK2 (Homo sapiens, UniProt Q5S007); test: LRRK2 degradation assay, HiBit-tagged wildtype LRRK2 expressed from plasmid in HEK293 cells (Nano-Glo Dual-Luciferase); details: HiBit-tagged wildtype LRRK2 in HEK293 cells, 24 hours; for Dmax: read-out: **WT Dmax (%); for DC50: read-out: *WT DC50
# T2 construct: expressed in transfected cells; host or cells: HEK293 (ATCC CRL-1573), transient transfection, mammalian expression vector with ubiquitin promoter
# Description: as §1, §2, §3, §4, §5, §6, §7, §8, §9
# [1] = target: T3, LRRK2 (endogenous, HiBit tagged) (Homo sapiens, UniProt Q5S007); test: Endogenous LRRK2 degradation assay, endogenous gene C-terminally HiBit-tagged in HEK293 cells (Nano-Glo Dual Luciferase); details: endogenous HiBit-tagged LRRK2 in HEK293 cells
# T3 construct: endogenous in cells; host or cells: HEK293 cells with HiBit knock-in at the endogenous LRRK2 locus, stably expressing firefly luciferase
# Outline: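 LRRK2-HiBit quantified via Nano-Glo Dual Luciferase in HEK293 knock-in cells co-expressing firefly luciferase, after 24 h exposure to compound (1 μM final top, 1:3, 11 points). Values normalised to DMSO median per plate and curve-fitted; Alamar Blue viability run alongside.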
# [2] = 24 hours treatment, read-out: Endogenous WT DC50
# [3] = 24 hours treatment, read-out: Endogenous WT Dmax
# [4] = 24 hours treatment, read-out: **Endogenous WT Dmax (%)
# [5] = 24 hours treatment, read-out: *Endogenous WT DC50
# T1 sequence (Q5S007 whole entry G2019S): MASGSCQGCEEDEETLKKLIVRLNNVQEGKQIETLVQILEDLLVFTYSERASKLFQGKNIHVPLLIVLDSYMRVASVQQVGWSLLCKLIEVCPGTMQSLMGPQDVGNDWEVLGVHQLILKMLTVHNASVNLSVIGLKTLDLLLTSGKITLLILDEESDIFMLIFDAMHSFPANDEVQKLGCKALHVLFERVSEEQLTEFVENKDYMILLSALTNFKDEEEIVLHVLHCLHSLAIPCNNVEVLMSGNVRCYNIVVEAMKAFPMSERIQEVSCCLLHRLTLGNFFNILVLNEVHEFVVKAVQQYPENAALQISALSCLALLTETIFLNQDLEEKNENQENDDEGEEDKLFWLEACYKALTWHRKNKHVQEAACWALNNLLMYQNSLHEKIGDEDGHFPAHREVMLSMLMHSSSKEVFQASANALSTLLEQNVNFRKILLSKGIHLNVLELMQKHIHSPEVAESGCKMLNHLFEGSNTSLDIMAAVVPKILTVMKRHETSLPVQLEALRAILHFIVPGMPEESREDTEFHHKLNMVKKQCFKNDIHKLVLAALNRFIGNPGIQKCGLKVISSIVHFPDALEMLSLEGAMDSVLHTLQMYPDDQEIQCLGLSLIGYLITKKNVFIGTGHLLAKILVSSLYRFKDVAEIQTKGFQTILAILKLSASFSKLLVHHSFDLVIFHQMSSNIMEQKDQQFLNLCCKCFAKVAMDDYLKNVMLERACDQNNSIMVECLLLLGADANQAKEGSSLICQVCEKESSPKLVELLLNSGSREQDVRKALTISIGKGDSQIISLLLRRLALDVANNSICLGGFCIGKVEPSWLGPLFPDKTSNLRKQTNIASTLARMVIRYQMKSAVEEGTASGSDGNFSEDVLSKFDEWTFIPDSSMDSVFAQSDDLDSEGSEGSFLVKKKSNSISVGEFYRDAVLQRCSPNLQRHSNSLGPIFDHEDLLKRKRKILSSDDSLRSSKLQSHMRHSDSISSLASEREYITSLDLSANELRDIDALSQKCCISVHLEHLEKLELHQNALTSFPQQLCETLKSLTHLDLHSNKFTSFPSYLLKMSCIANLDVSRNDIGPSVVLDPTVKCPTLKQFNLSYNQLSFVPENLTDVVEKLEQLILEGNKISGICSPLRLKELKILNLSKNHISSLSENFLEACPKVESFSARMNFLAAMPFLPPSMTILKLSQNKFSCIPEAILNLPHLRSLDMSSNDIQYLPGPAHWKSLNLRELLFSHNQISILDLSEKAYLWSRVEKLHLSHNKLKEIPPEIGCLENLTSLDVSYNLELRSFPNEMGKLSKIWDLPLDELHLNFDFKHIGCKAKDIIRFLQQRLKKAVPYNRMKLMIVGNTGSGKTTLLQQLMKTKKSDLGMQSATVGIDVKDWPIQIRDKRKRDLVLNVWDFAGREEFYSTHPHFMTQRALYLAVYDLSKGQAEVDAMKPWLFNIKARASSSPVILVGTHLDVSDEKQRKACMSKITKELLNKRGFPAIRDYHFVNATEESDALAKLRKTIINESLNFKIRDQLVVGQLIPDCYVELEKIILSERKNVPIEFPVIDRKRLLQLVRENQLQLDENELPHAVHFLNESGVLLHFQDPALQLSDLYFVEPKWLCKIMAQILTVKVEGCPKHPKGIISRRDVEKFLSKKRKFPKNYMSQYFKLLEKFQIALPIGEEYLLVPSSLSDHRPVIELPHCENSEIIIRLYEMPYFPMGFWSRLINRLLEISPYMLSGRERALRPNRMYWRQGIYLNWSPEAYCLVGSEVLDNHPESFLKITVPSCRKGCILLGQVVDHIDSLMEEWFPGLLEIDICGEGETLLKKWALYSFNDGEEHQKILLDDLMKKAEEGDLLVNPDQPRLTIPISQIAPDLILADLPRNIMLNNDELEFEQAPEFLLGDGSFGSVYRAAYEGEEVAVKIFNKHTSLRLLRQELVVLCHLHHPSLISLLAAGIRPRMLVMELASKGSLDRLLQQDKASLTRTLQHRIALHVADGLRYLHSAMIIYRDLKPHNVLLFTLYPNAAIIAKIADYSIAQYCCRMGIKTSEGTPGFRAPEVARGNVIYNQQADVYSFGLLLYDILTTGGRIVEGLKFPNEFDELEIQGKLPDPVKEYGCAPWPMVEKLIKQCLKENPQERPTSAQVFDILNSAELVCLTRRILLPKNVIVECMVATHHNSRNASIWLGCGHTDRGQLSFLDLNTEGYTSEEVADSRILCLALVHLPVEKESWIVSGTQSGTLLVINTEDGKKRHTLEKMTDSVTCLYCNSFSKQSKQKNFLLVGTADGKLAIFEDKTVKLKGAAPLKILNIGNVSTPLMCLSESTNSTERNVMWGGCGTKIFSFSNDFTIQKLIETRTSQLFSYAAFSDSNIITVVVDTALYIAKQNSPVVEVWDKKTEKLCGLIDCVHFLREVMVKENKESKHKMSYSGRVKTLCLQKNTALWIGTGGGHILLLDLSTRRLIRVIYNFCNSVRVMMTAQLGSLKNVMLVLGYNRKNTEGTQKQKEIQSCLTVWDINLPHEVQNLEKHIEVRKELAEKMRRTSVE
# T2 sequence (Q5S007 whole entry): as the sequence (Q5S007 whole entry G2019S) above, with S2019G counted along it
# T3 sequence (Q5S007 whole entry): as the sequence (Q5S007 whole entry G2019S) above, with S2019G counted along it
smiles,measurement,setting,value
"C[C@H]1CN(c2cc(-c3n[nH]c4cc(F)c(OC5(C)CC5)cc34)ncn2)CCN1CC1(F)CCN(CC2CCN(c3ccc4c(c3)C(=O)N(C3CCC(=O)NC3=O)C4=O)CC2)CC1 (stereo partly drawn) [Compound 106, 2-(2,6-dioxo-3-piperidyl)-5-[4-[[4-fluoro-4-[[(2S)-4-[6-[6-fluoro-5-(1-methylcyclopropoxy)-1H-indazol-3-yl]pyrimidin-4-yl]-2-methyl-piperazin-1-yl]methyl]-1-piperidyl]methyl]-1-piperidyl]isoindoline-1,3-dione]",DC50,G2019S LRRK2,< 10 nM
same,Dmax,G2019S LRRK2,< 50%
same,Dmax,wildtype LRRK2,< 50%
same,DC50,wildtype LRRK2,< 10 nM
"CC1(Oc2ccc3n[nH]c(-c4cc(N5CCN(C(=O)C6CCN(CC7CCN(c8ccc9c(c8)C(=O)N(C8CCC(=O)NC8=O)C9=O)CC7)CC6)CC5)ncn4)c3c2)CC1 (centres unmarked) [Compound 84, 2-(2,6-dioxo-3-piperidyl)-5-[4-[[4-[4-[6-[5-(1-methylcyclopropoxy)-2H-indazol-3-yl]pyrimidin-4-yl]piperazine-1-carbonyl]-1-piperidyl]methyl]-1-piperidyl]isoindoline-1,3-dione]",DC50,G2019S LRRK2,< 10 nM
same,Dmax,G2019S LRRK2,< 50%
same,Dmax,wildtype LRRK2,50 to 70%
same,DC50,wildtype LRRK2,< 10 nM
"CC1(Oc2ccc3[nH]nc(-c4cc(N5CCC(CN6CC[C@H](CN7CCN(c8ccc9c(c8)C(=O)N(C8CCC(=O)NC8=O)C9=O)CC7)C6)CC5)ncn4)c3c2)CC1 (stereo partly drawn) [Compound 114, 2-(2,6-dioxo-3-piperidyl)-5-[4-[[(3S)-1-[[1-[6-[5-(1-methylcyclopropoxy)-1H-indazol-3-yl]pyrimidin-4-yl]-4-piperidyl]methyl]pyrrolidin-3-yl]methyl]piperazin-1-yl]isoindoline-1,3-dione]",Dmax,wildtype LRRK2,50 to 70%
same,DC50,wildtype LRRK2,< 10 nM
"C[C@H]1CN(c2cc(-c3n[nH]c4ccc(OC5(C)CC5)cc34)ncn2)CCN1C[C@H]1CCN(CC2CCN(c3ccc4c(c3)C(=O)N(C3CCC(=O)NC3=O)C4=O)CC2)C1 (stereo partly drawn) [Compound 111, 2-(2,6-dioxo-3-piperidyl)-5-[4-[[(3S)-3-[[(2S)-2-methyl-4-[6-[5-(1-methylcyclopropoxy)-1H-indazol-3-yl]pyrimidin-4-yl]piperazin-1-yl]methyl]pyrrolidin-1-yl]methyl]-1-piperidyl]isoindoline-1,3-dione]",Dmax,wildtype LRRK2,≥ 70%
same,DC50,wildtype LRRK2,< 10 nM
"CC1(Oc2ccc3[nH]nc(-c4cc(N5CCC(CN6CCN(CC7CCN(c8cccc9c8C(=O)N(C8CCC(=O)NC8=O)C9=O)CC7)CC6)CC5)ncn4)c3c2)CC1 (centres unmarked) [Compound 146, 2-(2,6-dioxo-3-piperidyl)-4-[4-[[4-[[1-[6-[5-(1-methylcyclopropoxy)-2H-indazol-3-yl]pyrimidin-4-yl]-4-piperidyl]methyl]piperazin-1-yl]methyl]-1-piperidyl]isoindoline-1,3-dione]",Dmax,wildtype LRRK2,50 to 70%
same,DC50,wildtype LRRK2,10 to 50 nM
"CC1(Oc2ccc3[nH]nc(-c4cc(N5CCC(CN6CCC(F)(CC7CCN(c8ccc9c(c8F)CN(C8CCC(=O)NC8=O)C9=O)CC7)CC6)CC5)ncn4)c3c2)CC1 (centres unmarked) [Compound 231, 3-[4-fluoro-5-[4-[[4-fluoro-1-[[1-[6-[5-(1-methylcyclopropoxy)-1H-indazol-3-yl]pyrimidin-4-yl]-4-piperidyl]methyl]-4-piperidyl]methyl]-1-piperidyl]-1-oxo-isoindolin-2-yl]piperidine-2,6-dione]",DC50,[1]; [2],< 10 nM
same,Dmax,[1]; [3],50 to 70%
"COc1c(N2CCN(C[C@H]3CC[C@H](OC4CCN(c5cc(-c6n[nH]c7ccc(OC8(C)CC8)cc67)ncn5)CC4)CC3)C(C)(C)C2)ccc2c1CN(C1CCC(=O)NC1=O)C2=O (some centres unmarked) [Compound 364, 3-[5-(3,3-dimethyl-4-{[(1r,4r)-4-[(1-{6-[5-(1-methylcyclopropoxy)-1H-indazol-3-yl]pyrimidin-4-yl}piperidin-4-yl)oxy]cyclohexyl]methyl}piperazin-1-yl)-4-methoxy-1-oxo-2,3-dihydro-1H-isoindol-2-yl]piperidine-2,6-dione]",DC50,[1]; [2],< 10 nM
same,Dmax,[1]; [3],50 to 70%
"C[C@H]1CN(c2cc(-c3[nH]nc4ccc(OC5(C)CC5)cc34)ncn2)CCN1CCC1CCN(C(=O)C2CCN(c3ccc4c(c3)C(=O)N(C3CCC(=O)NC3=O)C4=O)CC2)CC1 (stereo partly drawn) [Compound 57, 2-(2,6-dioxopiperidin-3-yl)-5-[4-(4-{2-[(2S)-2-methyl-4-{6-[5-(1-methylcyclopropoxy)-2H-indazol-3-yl]pyrimidin-4-yl}piperazin-1-yl]ethyl}piperidine-1-carbonyl)piperidin-1-yl]-2,3-dihydro-1H-isoindole-1,3-dione]",Dmax,"[1]; 24 hours, read-out: **Endogenous WT Dmax (%)",≥ 70%
same,DC50,"[1]; 24 hours, read-out: *Endogenous WT DC50",< 10 nM
"COc1c(N2CCC(N3CC(F)(CC4CCN(c5cc(-c6[nH]nc7ccc(OC8(C)CC8)cc67)ncn5)CC4)C3)CC2)ccc2c1CN(C1CCC(=O)NC1=O)C2=O (centres unmarked) [Compound 345, 3-(5-(4-(3-fluoro-3-((1-(6-(5-(1-methylcyclopropoxy)-2H-indazol-3-yl)pyrimidin-4-yl)piperidin-4-yl)methyl)azetidin-1-yl)piperidin-1-yl)-4-methoxy-1-oxoisoindolin-2-yl)piperidine-2,6-dione]",Dmax,[1]; [4],50 to 70%
same,DC50,[1]; [5],< 10 nM
"CC1(Oc2ccc3[nH]nc(-c4cc(N5CCC(O[C@H]6CC[C@H](CN7CCN(c8c(F)cc9c(c8F)CN(C8CCC(=O)NC8=O)C9=O)CC7)CC6)CC5)ncn4)c3c2)CC1 (some centres unmarked) [Compound 269, 3-[4,6-difluoro-1-oxo-5-(4-{[(1r,4r)-4-[(1-{6-[5-(1-methylcyclopropoxy)-1H-indazol-3-yl]pyrimidin-4-yl}piperidin-4-yl)oxy]cyclohexyl]methyl}piperazin-1-yl)-2,3-dihydro-1H-isoindol-2-yl]piperidine-2,6-dione]",Dmax,[1]; [4],50 to 70%
same,DC50,[1]; [5],< 10 nM
"CC1(Oc2cc3c(-c4cc(N5CCN(C[C@@H]6CCN(CC7CCN(c8ccc9c(c8F)CN(C8CCC(=O)NC8=O)C9=O)CC7)C[C@@H]6F)CC5)ncn4)n[nH]c3cc2F)CC1 (some centres unmarked) [Compound 299, 3-[4-fluoro-5-(4-{[(3r,4s)-3-fluoro-4-[(4-{6-[6-fluoro-5-(1-methylcyclopropoxy)-1H-indazol-3-yl]pyrimidin-4-yl}piperazin-1-yl)methyl]piperidin-1-yl]methyl}piperidin-1-yl)-1-oxo-2,3-dihydro-1H-isoindol-2-yl]piperidine-2,6-dione]",Dmax,[1]; [4],50 to 70%
same,DC50,[1]; [5],< 10 nM
